US4507487A, “Chemical compounds” (Bristol-Myers Company, priority 1983, dated 1985)
Values after ≈ are worked out from the molar mass of the structure shown. Read-outs that look alike come from different tables or passages of the source.

What was measured:
[1] = test system: M. morganii, Ent. cloacae and Ser. marcescens; assay: MIC, two-fold serial agar dilution in Mueller-Hinton agar, group (G-)-II; assay type: cell-based; details: read-out: Geometric Mean of MIC
Protocol: (§1) In the primary evaluation of the compounds of this invention, the Minimum Inhibitory Concentrations (MIC's) of the compounds were determined by the two-fold serial agar dilution method in Mueller-Hinton agar against 32 strains of test organisms in six groups.
(G-)II: M. morganii (1 strain), Ent. cloacae (2 strains) and Ser.

[2] = test system: Penicillinresistant S. aureus; assay: MIC, two-fold serial agar dilution in Mueller-Hinton agar, group (G+)-Ib; assay type: cell-based; details: Staphylococcus aureus, read-out: Geometric Mean of MIC
Protocol: as §1
(G+)Ib: Penicillinresistant S. aureus (5 strains)

[3] = Mouse blood levels after single intramuscular injection; assay type: in vivo, mice; details: for concentration at 10 min / concentration at 20 min / concentration at 0.5 h / concentration at 40 min / concentration at 50 min / concentration at 1 h / concentration at 1.5 h / concentration at 2 h: read-out: Mouse Blood Level; for concentration at 0.5 h: 30 minutes; for concentration at 1 h: 60 minutes; for concentration at 1.5 h: 90 minutes; for concentration at 2 h: 120 minutes
Protocol: The absorption of some of the preferred compounds were determined in mice following a single intramuscular injection of the test compound (dissolved in 0.1M phosphate buffer; pH 7) at a dosage of 10, 20 or 40 mg/kg. Blood samples were collected from the orbital sinuses into heparinized capillary tubes and assayed in Nutrient Agar (pH 6.6) using E. coli Ess-22-31 as the test organism. The blood levels at various time intervals, the half-life values (t1/2) and the areas under the curve (AUC) are shown in Table 3.

[4] = test system: Ps. aeruginosa A9843; assay: MIC against specific test organism; assay type: cell-based; details: Pseudomonas aeruginosa, read-out: Minimum Inhibitory Concentration
Protocol: as §1
(§2) The test method was as described for Table 1.

[5] = test system: M. morganii A9553; assay: MIC against specific test organism; assay type: cell-based; details: Morganella morganii, read-out: Minimum Inhibitory Concentration
Protocol: as §1, §2

[6] = test system: E. coli A15164; assay: MIC against specific test organism; assay type: cell-based; details: Escherichia coli; E. coli A15164, cephalothin-resistant strain; read-out: Minimum Inhibitory Concentration
Protocol: as §1, §2

[7] = test system: S. aureus Smith; assay: MIC against specific test organism; assay type: cell-based; details: Staphylococcus aureus, read-out: Minimum Inhibitory Concentration
Protocol: as §1, §2

[8] = test system: Ent. cloacae A9656; assay: MIC against specific test organism; assay type: cell-based; details: Enterobacter cloacae, read-out: Minimum Inhibitory Concentration
Protocol: as §1, §2

[9] = test system: S. aureus BX-1633-2; assay: MIC against specific test organism; assay type: cell-based; details: Staphylococcus aureus, BX16332; S. aureus BX-1633-2, penicillin-resistant strain; read-out: Minimum Inhibitory Concentration
Protocol: as §1, §2

[10] = test system: Ser. marcescens A20019; assay: MIC against specific test organism; assay type: cell-based; details: Serratia marcescens, read-out: Minimum Inhibitory Concentration
Protocol: as §1, §2

[11] = test system: K. pneumoniae D11; assay: MIC against specific test organism; assay type: cell-based; details: Klebsiella pneumoniae, read-out: Minimum Inhibitory Concentration
Protocol: as §1, §2

[12] = test system: Ps. aeruginosa A20717; assay: MIC against specific test organism; assay type: cell-based; details: Pseudomonas aeruginosa, read-out: Minimum Inhibitory Concentration
Protocol: as §1, §2

[13] = test system: E. coli Juhl; assay: MIC against specific test organism; assay type: cell-based; details: Escherichia coli, read-out: Minimum Inhibitory Concentration
Protocol: as §1, §2

[14] = test system: Ps. aeruginosa A15150; assay: MIC against specific test organism; assay type: cell-based; details: Pseudomonas aeruginosa, read-out: Minimum Inhibitory Concentration
Protocol: as §1, §2

[15] = test system: Pr. mirabilis A9554; assay: MIC against specific test organism; assay type: cell-based; details: Proteus mirabilis, read-out: Minimum Inhibitory Concentration
Protocol: as §1, §2

[16] = test system: K. pneumoniae A9867; assay: MIC against specific test organism; assay type: cell-based; details: Klebsiella pneumoniae; K. pneumoniae A9867, cephalothin-resistant strain; read-out: Minimum Inhibitory Concentration
Protocol: as §1, §2

[17] = test system: Cephalothinresistant E. coli and Kl. pneumoniae; assay: MIC, two-fold serial agar dilution in Mueller-Hinton agar, group (G-)-Ib; assay type: cell-based; details: read-out: Geometric Mean of MIC
Protocol: as §1
(G-)Ib: Cephalothinresistant E. coli (3 strains) and Kl. pneumoniae (3

[18] = test system: Ps. aeruginosa; assay: MIC, two-fold serial agar dilution in Mueller-Hinton agar, group (G-)-III; assay type: cell-based; details: Pseudomonas aeruginosa, Ps. aeruginosa (6 strains), read-out: Geometric Mean of MIC
Protocol: as §1

[19] = test system: Penicillinsensitive S. aureus; assay: MIC, two-fold serial agar dilution in Mueller-Hinton agar, group (G+)-Ia; assay type: cell-based; details: Staphylococcus aureus; (G+)-Ia, penicillin-sensitive S. aureus (5 strains); read-out: Geometric Mean of MIC
Protocol: as §1

[20] = test system: Cephalothinsensitive E. coli, Kl. pneumoniae and Pr. mirabilis; assay: MIC, two-fold serial agar dilution in Mueller-Hinton agar, group (G-)-Ia; assay type: cell-based; details: (G-)-Ia, cephalothin-sensitive E. coli (2), Kl. pneumoniae (1), Pr. mirabilis (2 strains); read-out: Geometric Mean of MIC
Protocol: as §1
(G-)Ia: Cephalothinsensitive E. coli (2 strains), Kl. pneumoniae (1
strain) and Pr. mirabilis (2 strains)

## CSc1scc[n+]1CC1=C(C(=O)[O-])N2C(=O)C(NC(=O)/C(=N\OC3(C(=O)O)CCC3)c3csc(N)n3)[C@H]2SC1 (stereo partly shown) [Example 2, 7-[(Z)-2-(2-Aminothiazol-4-yl)-2-(1-carboxycyclobut-1-oxyimino)acetamido]-3-(2-methylthiothiazolio)methyl-3-cephem-4-carboxylate]
[1]; (G-)-II, M. morganii (1), Ent. cloacae (2), Ser. marcescens (2 strains)
  MIC: 0.2 µg/mL (≈ 0.327 µM)
[2]
  MIC: 2.7 µg/mL (≈ 4.42 µM)
[3]; 10 mg/kg im
  AUC: 3600 ng·h/mL
  half-life: 17 min
  concentration at 10 min: 8400 ng/mL
  concentration at 20 min: 5500 ng/mL
  concentration at 0.5 h: 3700 ng/mL
  concentration at 40 min: < 1600 ng/mL
[3]; 20 mg/kg im
  AUC: 9000 ng·h/mL
  half-life: 11 min
  concentration at 10 min: 22000 ng/mL
  concentration at 20 min: 15000 ng/mL
  concentration at 0.5 h: 8600 ng/mL
  concentration at 40 min: 5700 ng/mL
  concentration at 50 min: 2400 ng/mL
  concentration at 1 h: < 1600 ng/mL
[3]; 40 mg/kg im
  AUC: 16000 ng·h/mL
  half-life: 11 min
  concentration at 10 min: 43000 ng/mL
  concentration at 20 min: 27000 ng/mL
  concentration at 0.5 h: 14000 ng/mL
  concentration at 40 min: 7500 ng/mL
  concentration at 50 min: 3800 ng/mL
  concentration at 1 h: 2300 ng/mL
  concentration at 1.5 h: < 1600 ng/mL
[4]
  MIC: 1.6 µg/mL (≈ 2.62 µM)
[5]
  MIC: 0.2 µg/mL (≈ 0.327 µM)
[6]
  MIC: 0.4 µg/mL (≈ 0.655 µM)
[7]
  MIC: 1.6 µg/mL (≈ 2.62 µM)
[8]
  MIC: 0.05 µg/mL (≈ 0.0819 µM)
[9]
  MIC: 3.1 µg/mL (≈ 5.08 µM)
[10]
  MIC: 0.1 µg/mL (≈ 0.164 µM)
[11]
  MIC: 0.05 µg/mL (≈ 0.0819 µM)
[12]
  MIC: 6.3 µg/mL (≈ 10.3 µM)
[13]
  MIC: 0.1 µg/mL (≈ 0.164 µM)
[14]
  MIC: 0.8 µg/mL (≈ 1.31 µM)
[15]
  MIC: 0.025 µg/mL (≈ 0.0409 µM)
[16]
  MIC: 3.1 µg/mL (≈ 5.08 µM)
[17]
  MIC: 0.4 µg/mL (≈ 0.655 µM)
[18]
  MIC: 1.8 µg/mL (≈ 2.95 µM)
[19]
  MIC: 0.92 µg/mL (≈ 1.51 µM)
[20]
  MIC: 0.025 µg/mL (≈ 0.0409 µM)

## CO/N=C(\C(=O)NC1C(=O)N2C(C(=O)[O-])=C(C[n+]3ccsc3SC)CS[C@H]12)c1csc(N)n1 (stereo partly shown) [Example 3, 7-[(Z)-2-(2-Aminothiazol-4-yl)-2-(methoxyimino)acetamido]-3-(2-methylthiothiazolio)methyl-3-cephem-4-carboxylate]
[1]
  MIC: 0.14 µg/mL (≈ 0.266 µM)
[2]
  MIC: 0.8 µg/mL (≈ 1.52 µM)
[3]; 10 mg/kg im
  AUC: 18000 ng·h/mL
  half-life: 47 min
  concentration at 10 min: 14000 ng/mL
  concentration at 20 min: 14000 ng/mL
  concentration at 0.5 h: 12000 ng/mL
  concentration at 40 min: 10000 ng/mL
  concentration at 50 min: 9800 ng/mL
  concentration at 1 h: 6800 ng/mL
  concentration at 1.5 h: 5200 ng/mL
  concentration at 2 h: 3200 ng/mL
[3]; 20 mg/kg im
  AUC: 29000 ng·h/mL
  half-life: 46 min
  concentration at 10 min: 24000 ng/mL
  concentration at 20 min: 22000 ng/mL
  concentration at 0.5 h: 20000 ng/mL
  concentration at 40 min: 17000 ng/mL
  concentration at 50 min: 13000 ng/mL
  concentration at 1 h: 11000 ng/mL
  concentration at 1.5 h: 9500 ng/mL
  concentration at 2 h: 4500 ng/mL
[3]; 40 mg/kg im
  AUC: 60000 ng·h/mL
  half-life: 54 min
  concentration at 10 min: 48000 ng/mL
  concentration at 20 min: 36000 ng/mL
  concentration at 0.5 h: 32000 ng/mL
  concentration at 40 min: 32000 ng/mL
  concentration at 50 min: 24000 ng/mL
  concentration at 1 h: 20000 ng/mL
  concentration at 1.5 h: 15000 ng/mL
  concentration at 2 h: 10000 ng/mL
[4]
  MIC: 3.1 µg/mL (≈ 5.89 µM)
[5]
  MIC: 0.2 µg/mL (≈ 0.38 µM)
[6]
  MIC: 0.1 µg/mL (≈ 0.19 µM)
[7]
  MIC: 0.4 µg/mL (≈ 0.76 µM)
[8]
  MIC: 0.05 µg/mL (≈ 0.0949 µM)
[9]
  MIC: 0.8 µg/mL (≈ 1.52 µM)
[10]
  MIC: 0.025 µg/mL (≈ 0.0475 µM)
[11]
  MIC: 0.025 µg/mL (≈ 0.0475 µM)
[12]
  MIC: 6.3 µg/mL (≈ 12 µM)
[13]
  MIC: 0.025 µg/mL (≈ 0.0475 µM)
[14]
  MIC: 0.8 µg/mL (≈ 1.52 µM)
[15]
  MIC: 0.05 µg/mL (≈ 0.0949 µM)
[16]
  MIC: 0.8 µg/mL (≈ 1.52 µM)
[17]
  MIC: 0.15 µg/mL (≈ 0.285 µM)
[18]
  MIC: 2 µg/mL (≈ 3.8 µM)
[19]
  MIC: 0.23 µg/mL (≈ 0.437 µM)
[20]
  MIC: 0.022 µg/mL (≈ 0.0418 µM)
